Source: the OPERA property sets (Mansouri et al. 2018)
Peptide text beside a SMILES is read from it.

SMILES | logP
NC(=O)Oc1ccccc1 | 1.08
O=C1c2ccccc2-c2ccccc21 | 3.58
CCCC(=NOCC)C1C(=O)CC2(CCC(CC)CC2)OC1=O (stereo not given) | 4.48
c1ccc(N(c2ccccc2)c2ccccc2)cc1 | 5.74
O=C1CC(=O)NC(=O)N1 | -1.47
Nc1cccc2cc3ccccc3nc12 | 3.26
CC1CN1C1=C(F)C(=O)C(N2CC2C)=C(F)C1=O (stereo not given) | 1.61
CNC(=NC#N)NCCSCc1ncccc1OC | 0.97
CCOC(=O)C(=Cc1ccc(Cl)cc1)C(C)=O | 3.04
NNc1ccccc1 | 1.25
NC(=O)CF | -1.05
Oc1ccc(Cl)c(O)c1 | 1.8
O=NN(CC(F)(F)F)CC(F)(F)F | 2.15
N=C(N)NS(=O)(=O)c1ccc(N)cc1 | -1.22
CCCCOC(=O)n1cnc(CSCCNC(=NC#N)NC)c1C | 2.15
O=C(O)COc1cccc(O)c1 | 0.76
[N-]=[N+]=Nc1ccccc1 | 2.59
NNc1ccc([N+](=O)[O-])cc1 | 1.41
NC(=O)c1cccc(C(N)=O)c1 | -0.21
CCOc1ccc(S(I)=C(N(C)C)N(C)C)cc1 (stereo not given) | -0.06
CN(C)C(=N)N(C)C | 0.41
CCCc1cc(OC)c(CC(C)N)cc1OC (stereo not given) | 3.37

SMILES | logP
CCCCCC1(CC)C(=O)NC(=O)NC1=O | 2.24
CC(C)OC(=O)Nc1cccc(Cl)c1 | 3.51
CNC(=O)Oc1ccccc1C(C)(C)C | 2.65
O=[N+]([O-])c1ccc(O)c2ncccc12 | 1.99
N#Cc1ccc(C(=O)O)cc1 | 1.56
O=C(O)CCCN1C(=O)C=CC1=O | 0.4
FC(F)OC(Cl)C(F)(F)F (stereo not given) | 2.06
CC(=O)OCc1ccc(Cl)cc1 | 2.59
C(=C\c1ccccc1)/c1ccccc1 | 4.81
O=Cc1cccc(Oc2ccccc2)c1 | 3.38
ClC(Cl)(Cl)C(Cl)(Cl)Cl | 4.14
O=[N+]([O-])c1cccs1 | 1.55
OCc1cccc(Cl)c1 | 1.94
Oc1cnc2ccccc2c1 | 2.08
CCNC(=O)c1cccnc1 | 0.31
Clc1ccc(-c2cc(Cl)c(Cl)c(Cl)c2Cl)c(Cl)c1 | 7.44
Clc1ccc(-c2cc3ccccn3c2)cc1 | 5.2
COC(=O)NS(=O)(=O)c1ccc(N)cc1 | -0.27
COC(=O)C12OCC34C(CC5C(C)=C(O)C(=O)CC5(C)C3C(O)C1O)OC(=O)C(OC(=O)C=C(C)C(C)C)C24 (stereo not given) | 1.66
CCC(C)NC(=O)C=C(SC)c1ccccc1 (stereo not given) | 3.03
Fc1cccnc1 | 0.77
NCCc1ccc(O)c(O)c1 | -0.98

SMILES | logP
NC(=O)NC(=O)Cc1ccccc1 | 0.87
C[N+](C)(C)Cc1ccccc1.[Cl-] | -2.17
CN1CC[C@]23c4c5ccc(O)c4O[C@H]2C(=O)CC[C@@]3(O)[C@H]1C5 | 0.83
FC(F)(F)Sc1ccccc1 | 3.57
C=CNP(=O)(NC=C)NC(=O)c1ccc(OC)cc1 | 1.08
CCOc1ccc2nccnc2c1 | 2.22
CC(C)(N)Cc1ccccc1 | 1.9
CN(CCO)N=Nc1ccc(C(N)=O)cc1 | 0.26
CN(C)C(N(C)C)=S(I)c1cccc(Br)c1 (stereo not given) | 0.01
COc1cccc(S(C)(=O)=O)c1 | 0.76
CCC(C)OC(C)=O (stereo not given) | 1.72
CCCCC(N)Cc1ccccc1 (stereo not given) | 3.36
CC1=NS(=O)(=O)c2ccccc2N1 | 0.29
N#Cc1ccc([N+](=O)[O-])cc1 | 1.19
C=C(C)C(=O)OCCCC | 2.88
CC(=O)N(C)Nc1ccccc1 | 1.31
C=CCOc1cc(N)ccc1C(=O)O | 1.25
O=C(CN1CCCCC1)Nc1ccc(Br)cc1 | 3.57
c1ccc2c(c1)CCO2 | 2.14
CC(=O)C(=Cc1ccc(Cl)cc1)C(C)=O | 2.32
c1ccc2c(c1)CCCN2 | 2.29
CCOC(=O)/C(=C\c1ccccc1Cl)C(C)=O | 2.84

SMILES | logP
CC(O)CN (stereo not given) | -0.96
CC(=O)c1ccc(N2CCCCC2)cc1 | 3.13
O=C(CN1CCCCC1)Nc1ccccc1[N+](=O)[O-] | 2.75
O=[N+]([O-])O[C@H]1CO[C@H]2[C@@H]1OC[C@H]2O[N+](=O)[O-] | 1.31
CCC1=Nc2ccc(Cl)cc2S(=O)(=O)N1 | 1.62
Cn1nnnc1SCC1=C(C(=O)O)N2C(=O)C(NC(=O)CSCC#N)C2SC1 (stereo not given) | -0.62
CCC[N+](=O)[O-] | 0.87
CNCC(CC(C)C)c1ccccc1 (stereo not given) | 3.76
CC(C)(C)C#N | 1.08
CN1CCN(CCCN2c3ccccc3Sc3ccc(C(F)(F)F)cc32)CC1 | 5.03
C=CC(=O)O | 0.35
CCCN(CC)CCC | 2.68
Cc1ccc(C)c(C)c1 | 3.63
O=C1C=C(N2CCCC2)C(=O)c2ccccc21 | 2.89
Cc1c2ccccc2c(C)c2c1ccc1ccccc12 | 5.8
CC(=O)N[C@@H](CC(C)C)C(=O)N[C@@H](CO)C(=O)N[C@@H](Cc1ccccc1)C(N)=O (Ac-Leu-Ser-Phe-NH2) | 0.23
NCc1ccco1 | 0.37
CNC(=O)Oc1cc(C)cc(C)c1 | 2.23
CCCOc1ccc(O)cc1 | 2.33
